Values of other authors in patent EP0433909A2, “Formulation” (CIBA-GEIGY AG, priority 1989, dated 1991).

Settings: for solubilities: in water, K. Wellinga et al., J. Agr. Food Chem. Vol 21, No.3 (1973), p.350

Structure (SMILES) | solubilities | solubility in water (The Merck Index, 9th Ed. (1976), p. 416)
O=C(NC(=O)c1c(Cl)cccc1Cl)Nc1ccc(Cl)c(Cl)c1 [1-(2,6-dichlorobenzoyl)-3-(3,4-dichlorophenyl)-urea] | ≤ 1 ppm | 
O=C(NC(=O)c1c(Cl)cccc1Cl)Nc1ccc(Cl)cc1 [1-(4-chlorophenyl)-3-(2,6-dichlorobenzoyl)-urea] | ≤ 1 ppm | 
O=C(NC(=O)c1c(F)cccc1F)Nc1ccc(Cl)cc1 [1-(4-chlorophenyl)-3-(2,6-difluorobenzoyl)urea] |  | about 0.3 ppm
